Assay: xn = mol fraction of the nth substance listed
Details: 101 kPa, Liquid; for speed of sound: Sing-around technique in a fixed-path interferometer

CCOC(C)(C)C [2-ethoxy-2-methylpropane] + Cc1ccccc1C
Details | mass density, 305.65 K [kg/m3] | mass density, 308.15 K [kg/m3] | mass density, 310.65 K [kg/m3] | mass density, 313.15 K [kg/m3] | speed of sound, 308.15 K [m/s] | speed of sound, 310.65 K [m/s] | speed of sound, 313.15 K [m/s] | speed of sound, 315.65 K [m/s]
x1 = 0.055 | 860.769 | 858.631 | 856.488 | 854.337 | 1287.6 | 1277.2 | 1267.1 | 1256.9
x1 = 0.098 | 854.986 | 852.826 | 850.664 | 848.496 | 1274.8 | 1264.8 | 1254.7 | 1244.6
x1 = 0.201 | 840.317 | 838.108 | 835.894 | 833.676 | 1241.4 | 1231.1 | 1220.9 | 1210.7
x1 = 0.307 | 825.151 | 822.889 | 820.623 | 818.351 | 1205.4 | 1195 | 1184.6 | 1174.3
x1 = 0.4 | 811.766 | 809.458 | 807.147 | 804.83 | 1176.8 | 1166.3 | 1155.9 | 1145.5
x1 = 0.502 | 797.158 | 794.798 | 792.433 | 790.061 | 1143 | 1132.4 | 1121.9 | 1111.4
x1 = 0.601 | 783.634 | 781.229 | 778.816 | 776.395 | 1112.4 | 1101.8 | 1091.1 | –
x1 = 0.661 | 775.073 | 772.636 | 770.192 | 767.738 | 1093.1 | 1082.4 | 1071.7 | –
x1 = 0.803 | 755.208 | 752.697 | 750.176 | 747.65 | 1049.4 | 1038.6 | 1027.7 | –
x1 = 0.895 | 742.232 | 739.673 | 737.1 | 734.522 | 1022.1 | 1011.2 | 1000.3 | –
x1 = 0.947 | 735.025 | 732.438 | 729.838 | 727.227 | 1007 | 996 | 985.03 | –
x1 = 1 | 727.038 | 724.443 | 721.826 | 719.179 | 986.39 | 975.42 | 964.53 | –

From the NIST ThermoML archive (doi:10.1016/j.fluid.2008.03.004)
